From patent US20260108546A1 (ELI LILLY AND COMPANY, priority 2024, published 2026)
Blank lines part the entries; values can stand above or below the compound they belong to.

Target: T1, hGIP-R (Homo sapiens, UniProt P48546)
T1 construct: expressed in transfected cells; host or cells: HEK-293 clonal cell lines
T1 sequence (P48546 22-466): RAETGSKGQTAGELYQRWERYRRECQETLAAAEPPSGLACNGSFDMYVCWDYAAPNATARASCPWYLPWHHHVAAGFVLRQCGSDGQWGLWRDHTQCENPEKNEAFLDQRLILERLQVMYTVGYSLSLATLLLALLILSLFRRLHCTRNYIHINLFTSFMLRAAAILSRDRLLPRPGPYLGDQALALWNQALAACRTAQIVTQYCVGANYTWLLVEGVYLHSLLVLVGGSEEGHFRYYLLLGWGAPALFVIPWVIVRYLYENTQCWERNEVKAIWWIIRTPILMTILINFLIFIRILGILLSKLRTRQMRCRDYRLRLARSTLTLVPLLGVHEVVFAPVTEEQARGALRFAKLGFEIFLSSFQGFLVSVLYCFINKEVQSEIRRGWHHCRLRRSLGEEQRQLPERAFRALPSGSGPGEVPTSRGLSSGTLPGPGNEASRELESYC
Assay: Functional hGIP-R Assay (cAMP formation, HTRF)
Type: cell-based
Conditions: for Emax: cAMP efficacy, percent of maximal response to GIP(1-42)OH, 37° C., 0.1% bovine casein, arithmetic mean ± SEM; for EC50: cAMP potency, HEK-293 cells expressing hGIP-R, incubated at 37° C. in the presence of 0.1% bovine casein, geometric mean, read-out: Human GIP-R EC50, nM (SEM, n)
Outline: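 Relative EC50 and Emax came from four-parameter logistic fits of cAMP as a percent of the human GIP (1-42) OH maximal response. The cAMP was measured by competitive HTRF after 30 min, 37 °C compound exposure of hGIP-R HEK-293 clones in IBMX (250 μM)-containing medium.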

SMILES: CN(C(=O)[C@H]1C[C@@H]1c1ccc(-c2cnc3nn(C)cc3c2)cc1)[C@H](Cc1cnn(C)c1)C(=O)NC(C)(C)Cn1nc(C(F)(F)F)cc1-c1ccc(=O)n(C)c1 [Example 31, (1S,2S)-N-Methyl-N-((R)-1-((2-methyl-1-(5-(1-methyl-6-oxo-1,6-dihydropyridin-3-yl)-3-(trifluoromethyl)-1H-pyrazol-1-yl)propan-2-yl)amino)-3-(1-methyl-1H-pyrazol-4-yl)-1-oxopropan-2-yl)-2-(4-(2-methyl-2H-pyrazolo[3,4-b]pyridin-5-yl)phenyl) cyclopropane-1-carboxamide]
Emax: 117 ± 4.92%
EC50: 152 nM

SMILES: Cc1cn2cc(-c3ccc([C@H]4C[C@@]45CCN([C@H](Cc4cnn(C(F)F)c4)C(=O)NC(C)(C)Cn4nc(C(F)(F)F)cc4-c4ccc(=O)[nH]n4)C5=O)c(Cl)c3)cnc2n1 [Example 148, (R)-2-((1S,3R)-1-(2-Chloro-4-(2-methylimidazo[1,2-a]pyrimidin-6-yl)phenyl)-4-oxo-5-azaspiro[2.4]heptan-5-yl)-3-(1-(difluoromethyl)-1H-pyrazol-4-yl)-N-(2-methyl-1-(5-(6-oxo-1,6-dihydropyridazin-3-yl)-3-(trifluoromethyl)-1H-pyrazol-1-yl)propan-2-yl)propanamide]
Emax: 74.4 ± 2.94%
EC50: 1.13 nM

SMILES: Cc1cn2cc(-c3ccc([C@H]4C[C@@H]4C(=O)N(C)[C@H](Cc4cnn(C)c4)C(=O)NC(C)(C)Cn4nc(C(F)(F)F)cc4-c4ccc(=O)n(C)c4)cc3)cnc2n1 [Example 91, (1S,2S)-N-Methyl-N-((R)-1-((2-methyl-1-(5-(1-methyl-6-oxo-1,6-dihydropyridin-3-yl)-3-(trifluoromethyl)-1H-pyrazol-1-yl)propan-2-yl)amino)-3-(1-methyl-1H-pyrazol-4-yl)-1-oxopropan-2-yl)-2-(4-(2-methylimidazo[1,2-a]pyrimidin-6-yl)phenyl)cyclopropane-1-carboxamide]
Emax: 114%
EC50: 60.9 nM

SMILES: Cn1cc(C[C@@H](NC(=O)[C@H]2C[C@@H]2c2ccc(-c3cnc4nn(C)cc4c3)cc2)C(=O)NC(C)(C)Cn2nc(C(F)(F)F)cc2-c2cnn3c2CNCC3)cn1 [Example 96, (1S,2S)-N—((R)-1-((2-methyl-1-(5-(4,5,6,7-tetrahydropyrazolo[1,5-a]pyrazin-3-yl)-3-(trifluoromethyl)-1H-pyrazol-1-yl)propan-2-yl)amino)-3-(1-methyl-1H-pyrazol-4-yl)-1-oxopropan-2-yl)-2-(4-(2-methyl-2H-pyrazolo[3,4-b]pyridin-5-yl)phenyl)cyclopropane-1-carboxamide]
Emax: 104 ± 4.57%
EC50: 169 nM

SMILES: Cn1cc2cc(-c3ccc([C@H]4C[C@@]45CCN([C@H](Cc4cnn(C(F)F)c4)C(=S)NC(C)(C)Cn4nc(C(F)(F)F)cc4-c4cc(F)c(=O)n(C)c4)C5=O)c(F)c3)cnc2n1 (single isomer, unassigned; isomer 1) [Example 118]
Emax: 59.3 ± 1.52%
EC50: 4.02 nM

SMILES: CC(C)(Cn1cc(C(F)(F)F)cn1)NC(=O)[C@@H](Cc1cnc2ncccn12)NC(=O)[C@H]1C[C@@H]1c1ccc(-c2cnc3nc(C(C)(F)F)cn3c2)cc1 [Example 80, (1S,2S)-2-(4-(2-(1,1-Difluoroethyl)imidazo[1,2-a]pyrimidin-6-yl)phenyl)-N-((R)-3-(imidazo[1,2-a]pyrimidin-3-yl)-1-((2-methyl-1-(4-(trifluoromethyl)-1H-pyrazol-1-yl)propan-2-yl)amino)-1-oxopropan-2-yl)cyclopropane-1-carboxamide]
Emax: 109 ± 4.1%
EC50: 28.6 nM

SMILES: Cn1cc(C[C@@H](NC(=O)[C@H]2C[C@@H]2c2ccc(-c3cnc4nc(C(F)(F)F)cn4c3)cc2)C(=O)NC(C)(C)Cn2nc(C(F)(F)F)cc2-c2nnc[nH]2)cn1 [Example 25, (1S,2S)-N-((R)-1-((1-(5-(4H-1,2,4-Triazol-3-yl)-3-(trifluoromethyl)-1H-pyrazol-1-yl)-2-methylpropan-2-yl)amino)-3-(1-methyl-1H-pyrazol-4-yl)-1-oxopropan-2-yl)-2-(4-(2-(trifluoromethyl)imidazo [1,2-a]pyrimidin-6-yl)phenyl) cyclopropane-1-carboxamide]
Emax: 142 ± 17.3%
EC50: 82.7 nM

SMILES: COC(=O)N(C)c1cc([C@H]2C[C@@H]2C(=O)N[C@H](Cc2cnn(C(F)F)c2)C(=O)NC(C)(C)Cn2nc(C(F)(F)F)cc2-c2cc(F)c(=O)n(C)c2)c(F)cc1O [Example 181, Methyl (5-((1S,2S)-2-(((R)-3-(1-(difluoromethyl)-1H-pyrazol-4-yl)-1-((1-(5-(5-fluoro-1-methyl-6-oxo-1,6-dihydropyridin-3-yl)-3-(trifluoromethyl)-1H-pyrazol-1-yl)-2-methylpropan-2-yl)amino)-1-oxopropan-2-yl)carbamoyl)cyclopropyl)-4-fluoro-2-hydroxyphenyl)(methyl)carbamate]
Emax: 25.5 ± 2.92%
EC50: 23.1 nM

SMILES: CN(C(=O)[C@H]1C[C@@H]1c1ccc(-c2cnc3nn(C)cc3c2)cc1)[C@H](Cc1cnn(C)c1)C(=O)NC(C)(C)Cn1nc(C(F)(F)F)cc1-c1cccc(=O)[nH]1 [Example 33, (1S,2S)-N-Methyl-N-((R)-1-((2-methyl-1-(5-(6-oxo-1,6-dihydropyridin-2-yl)-3-(trifluoromethyl)-1H-pyrazol-1-yl)propan-2-yl)amino)-3-(1-methyl-1H-pyrazol-4-yl)-1-oxopropan-2-yl)-2-(4-(2-methyl-2H-pyrazolo[3,4-b]pyridin-5-yl)phenyl) cyclopropane-1-carboxamide]
Emax: 108%
EC50: 133 nM

SMILES: Cn1cc2cc(-c3ccc([C@H]4C[C@@]45CCN([C@H](Cc4cnn(C(F)F)c4)C(=O)NC(C)(C)Cn4nc(C(F)(F)F)cc4P(C)(C)=O)C5=O)c(Cl)c3)cnc2n1 [Example 163, (R)-2-((1S,3R)-1-(2-chloro-4-(2-methyl-2H-pyrazolo[3,4-b]pyridin-5-yl)phenyl)-4-oxo-5-azaspiro[2.4]heptan-5-yl)-3-(1-(difluoro-methyl)-1H-pyrazol-4-yl)-N-(1-(5-(dimethyl-phosphoryl)-3-(trifluoro-methyl)-1H-pyrazol-1-yl)-2-methylpropan-2-yl)propanamide]
Emax: 109%
EC50: 3.95 nM

The remaining compounds from weak to strong by EC50, led by results:

Emax: 59.6 ± 0.0693%
EC50: 58.5 nM
SMILES: Cc1cn2cc(-c3ccc([C@H]4C[C@@]45CCN([C@H](Cc4cnn(C(F)F)c4)C(=O)NC(C)(C)Cn4nc(C(F)(F)F)cc4-c4cnc(C6CC6)nc4)C5=O)cc3)cnc2n1 (single isomer, unassigned; isomer 1) [Example 101]

Emax: 122 ± 2.6%
EC50: 49.1 nM
SMILES: Cn1cc(C[C@@H](NC(=O)[C@H]2C[C@@H]2c2ccc(-c3cnc4nn(C)cc4c3)cc2)C(=O)NC(C)(C)Cn2nc(C(F)(F)F)cc2-c2ccc(=O)[nH]c2)cn1 [Example 59, (1S,2S)-N-((R)-1-((2-Methyl-1-(5-(6-oxo-1,6-dihydropyridin-3-yl)-3-(trifluoromethyl)-1H-pyrazol-1-yl)propan-2-yl)amino)-3-(1-methyl-1H-pyrazol-4-yl)-1-oxopropan-2-yl)-2-(4-(2-methyl-2H-pyrazolo[3,4-b]pyridin-5-yl)phenyl) cyclopropane-1-carboxamide]

Emax: 123 ± 4.24%
EC50: 22.6 nM
SMILES: Cn1cc(C[C@@H](NC(=O)[C@H]2C[C@@H]2c2ccc(-c3cnc4nn(C)cc4c3)cc2)C(=O)NC(C)(C)Cn2nc(C(F)(F)F)cc2-c2ccn(C3CCOC3)n2)cn1 (mixture of isomers) [Example 53, (1S,2S)-N-((R)-1-((2-Methyl-1-(1-((RS)-tetrahydrofuran-3-yl)-5′-(trifluoromethyl)-1H,2′H-[3,3′-bipyrazol]-2′-yl)propan-2-yl)amino)-3-(1-methyl-1H-pyrazol-4-yl)-1-oxopropan-2-yl)-2-(4-(2-methyl-2H-pyrazolo[3,4-b]pyridin-5-yl)phenyl) cyclopropane-1-carboxamide, mixture of 2 diastereomers]

Emax: 87.2 ± 1.03%
EC50: 1.73 nM
SMILES: [2H]C([2H])([2H])n1cc(C[C@H](C(=O)NC(C)(C)Cn2nc(C(F)(F)F)cc2-c2cnc(C)nc2)N2CC[C@@]3(C[C@@H]3c3ccc(-c4cnc5nc(C)cn5c4)cc3Cl)C2=O)cn1 [Example 152, (R)-2-((1S,3R)-1-(2-Chloro-4-(2-methylimidazo[1,2-a]pyrimidin-6-yl)phenyl)-4-oxo-5-azaspiro[2.4]heptan-5-yl)-N-(2-methyl-1-(5-(2-methylpyrimidin-5-yl)-3-(trifluoromethyl)-1H-pyrazol-1-yl)propan-2-yl)-3-(1-(methyl-d3)-1H-pyrazol-4-yl)propanamide]

Emax: 63.3 ± 2.24%
EC50: 0.755 nM
SMILES: Cc1cn2cc(-c3ccc([C@H]4C[C@@]45CCN([C@H](Cc4cnn(C(F)F)c4)C(=O)NC(C)(C)Cn4nc(C(F)(F)F)cc4-c4cc(F)c(=O)n(C)c4)C5=O)c(C)c3)cnc2n1 [Example 144, (R)-3-(1-(Difluoromethyl)-1H-pyrazol-4-yl)-N-(1-(5-(5-fluoro-1-methyl-6-oxo-1,6-dihydropyridin-3-yl)-3-(trifluoromethyl)-1H-pyrazol-1-yl)-2-methylpropan-2-yl)-2-((1R,3R)-1-(2-methyl-4-(2-methylimidazo[1,2-a]pyrimidin-6-yl)phenyl)-4-oxo-5-azaspiro[2.4]heptan-5-yl)propanamide]
